Data taken from patent US9045482B2, “Pyrido[4,3-B]indoles and methods of use” (Medivation Technologies, Inc., priority 2009, dated 2015).

How the values were obtained:
[1] = molecular target: T1, human recombinant adrenergic α2B receptor (Homo sapiens, UniProt P18089); test: Adrenergic α2B radioligand binding ([3H]Rauwolscine)
T1 construct: expressed in transfected cells; host or cells: Chinese hamster ovary (CHO-K1) cells
T1 sequence (P18089 1-450): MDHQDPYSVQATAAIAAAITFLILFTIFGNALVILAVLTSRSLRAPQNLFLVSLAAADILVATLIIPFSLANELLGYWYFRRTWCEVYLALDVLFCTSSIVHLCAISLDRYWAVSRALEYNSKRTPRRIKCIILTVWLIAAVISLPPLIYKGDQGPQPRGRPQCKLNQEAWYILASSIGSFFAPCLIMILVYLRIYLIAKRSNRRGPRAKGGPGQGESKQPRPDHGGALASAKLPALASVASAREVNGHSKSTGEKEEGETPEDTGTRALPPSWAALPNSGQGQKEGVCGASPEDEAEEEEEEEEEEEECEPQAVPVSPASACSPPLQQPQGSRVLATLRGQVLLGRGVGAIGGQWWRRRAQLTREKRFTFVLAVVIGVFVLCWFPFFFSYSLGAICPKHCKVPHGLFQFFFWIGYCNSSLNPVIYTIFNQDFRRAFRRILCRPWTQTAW
Procedure: To evaluate in radioligand binding assays the activity of compounds of the invention, human recombinant adrenergic α2B receptor expressed in Chinese hamster ovary (CHO-K1) cells [Uhlen, S. et al., Eur. J. Pharmacol. (1998), 343(1):93] in a modified Tris-HCl buffer (50 mM Tris-HCl, pH 7.4, 12.5 mM MgCl2, 1 mM EDTA, 0.2% BSA) was used. Compounds of the invention were incubated with 2.5 nM [^3H]Rauwolscine for 60 min at 25° C. Non-specific binding was estimated in the presence of 10 μM Prozosin. Receptor proteins were filtered and washed, the filters were then counted to determine [^3H]Rauwolscine specifically bound. Compounds were screened at 1 μM or lower, using 1% DMSO as vehicle. Compounds of the invention were tested in this biochemical assay. Biochemical assay results for representative compounds were presented as the percent inhibition of specific binding in Table 3.

[2] = molecular target: T2, human recombinant adrenergic α2A receptor (Homo sapiens, UniProt P08913); test: Adrenergic α2A radioligand binding ([3H]MK-912)
T2 construct: expressed in transfected cells; host or cells: insect Sf9 cells
T2 sequence (P08913 1-465): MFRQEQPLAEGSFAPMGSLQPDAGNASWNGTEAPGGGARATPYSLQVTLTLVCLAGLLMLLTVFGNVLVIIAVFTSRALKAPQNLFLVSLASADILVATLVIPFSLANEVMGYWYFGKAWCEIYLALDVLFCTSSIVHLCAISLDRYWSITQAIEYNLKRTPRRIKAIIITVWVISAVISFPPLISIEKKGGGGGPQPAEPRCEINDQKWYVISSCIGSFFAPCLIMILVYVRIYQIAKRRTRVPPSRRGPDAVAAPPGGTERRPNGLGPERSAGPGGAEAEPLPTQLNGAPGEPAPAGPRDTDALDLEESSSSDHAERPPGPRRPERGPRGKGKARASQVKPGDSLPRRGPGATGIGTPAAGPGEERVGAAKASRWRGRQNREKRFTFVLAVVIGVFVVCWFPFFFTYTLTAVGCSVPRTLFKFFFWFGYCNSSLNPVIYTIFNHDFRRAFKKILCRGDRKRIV
Procedure: To evaluate in radioligand binding assays the activity of compounds of the invention, human recombinant adrenergic α2A receptor expressed in insect Sf9 cells [Uhlen, S. et al., J. Pharmacol. Exp. Ther. (1994), 271:1558] in a modified Tris-HCl buffer (50 mM Tris-HCl, pH 7.4, 12.5 mM MgCl2, 2 mM EDTA) was used. Compounds of invention were incubated with 1 nM [^3H]MK-912 for 60 min at 25° C. MK912 was (2S-trans)-1,3,4,5′,6,6′,7,12b-octahydro-1′,3′-dimethyl-spiro[2H-benzofuro[2,3-a]quinolizine-2,4′(1′H)-pyrimidin]-2′(3′H)-one hydrochloride Non-specific binding was estimated in the presence of 10 μM WB-4101 (2-(2,6-dimethoxyphenoxyethyl)aminomethyl-1,4-benzodioxane hydrochloride). Receptor proteins were filtered and washed, the filters were then counted to determine [^3H]MK-912 specifically bound. Compounds were screened at 1 μM or lower, using 1% DMSO as vehicle. Compounds of the invention were tested in this biochemical assay. Biochemical assay results for representative compounds were presented as the percent inhibition of specific binding in Table 3.

[3] = molecular target: T3, rat adrenergic α1B receptor (Rattus norvegicus, UniProt P15823); test: Adrenergic α1B radioligand binding ([3H]Prozosin); set-up: species or system Wistar Rat; details: 0.1 μM ligand conc.
T3 construct: rat adrenergic α1B receptor obtained from Wistar Rat liver; from tissue; host or cells: Wistar Rat liver
T3 sequence (P15823 1-515): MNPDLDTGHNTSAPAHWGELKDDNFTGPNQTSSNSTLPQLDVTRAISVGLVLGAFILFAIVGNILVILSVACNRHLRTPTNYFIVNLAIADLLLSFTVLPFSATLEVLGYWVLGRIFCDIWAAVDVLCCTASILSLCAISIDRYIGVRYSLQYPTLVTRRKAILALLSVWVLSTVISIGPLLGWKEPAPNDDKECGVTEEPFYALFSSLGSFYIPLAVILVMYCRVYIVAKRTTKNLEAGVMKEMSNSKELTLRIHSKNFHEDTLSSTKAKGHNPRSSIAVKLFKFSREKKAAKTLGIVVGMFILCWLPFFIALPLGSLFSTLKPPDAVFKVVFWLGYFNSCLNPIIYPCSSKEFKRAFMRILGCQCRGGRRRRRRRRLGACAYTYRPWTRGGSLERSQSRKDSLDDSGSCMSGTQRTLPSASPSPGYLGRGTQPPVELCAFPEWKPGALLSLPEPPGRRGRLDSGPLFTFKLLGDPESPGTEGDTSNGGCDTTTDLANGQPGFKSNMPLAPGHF
Procedure: To evaluate in radioligand binding assays the activity of compounds of the invention, rat adrenergic α1B receptor obtained from Wistar Rat liver [Garcia-S'ainz, J. A. et al., Biochem. Biophys. Res. Commun. (1992), 186:760; Michel, A. D. et al., Br. J. Pharmacol. (1989), 98:883] in a modified Tris-HCl buffer (50 mM Tris-HCl buffer, pH 7.4, 0.5 mM EDTA) was used. Compounds of the invention were incubated with 0.25 nM [^3H]Prozosin for 60 min at 25° C. Non-specific binding was estimated in the presence of 10 μM phentolamine. Receptor proteins were filtered and washed, the filters were then counted to determine [^3H]Prozosin specifically bound. Compounds were screened at 1 μM or lower, using 1% DMSO as vehicle. Compounds of the invention were tested in this biochemical assay. Biochemical assay results for representative compounds were presented as the percent inhibition of specific binding in Table 3.

| SMILES | Percent Inhibition of ligand binding Adrenergic α2B ([1]; 1 μM ligand conc.) | Percent Inhibition of ligand binding Adrenergic α2A ([2]; 1 μM ligand conc.) | Percent Inhibition of ligand binding Adrenergic α2B ([1]; 0.1 μM ligand conc.) | Percent Inhibition of ligand binding Adrenergic α1B [3] | Percent Inhibition of ligand binding Adrenergic α2A ([2]; 0.1 μM ligand conc.) |
| --- | --- | --- | --- | --- | --- |
| Fc1ccc(CCn2c3c(c4cc(Cl)ccc42)C2CCCN2CC3)cc1 (stereo not shown) [Compound 1, 7-(4-fluorophenethyl)-10-chloro-2,3,5,6,7,11c-hexahydro-1H-indolizino[7,8-b]indole] | 55% | 22% |  |  |  |
| Fc1ccc(CCn2c3c(c4cc(Cl)ccc42)CN2CCCC2C3)cc1 (stereo not shown) [Compound 2, 10-(4-fluorophenethyl)-7-chloro-2,3,5,10,11,11a-hexahydro-1H-indolizino[7,6-b]indole] | 51% | 20% |  |  |  |
| O=C(Cn1c2c(c3cccnc31)CN1CCCC1C2)N1CCCCC1 (stereo not shown) [Compound 37, 1-(piperidin-1-yl)-2-(8,9,9a,10-tetrahydro-5H-pyrido[3′,2′:4,5]pyrrolo[3,2-f]indolizin-11(7H)-yl)ethanone] |  |  | 40% | 9% | 12% |
| O=C(Cn1c2c(c3cccnc31)C1CCCN1CC2)N1CCCCC1 (stereo not shown) [Compound 38, 1-(piperidin-1-yl)-2-(2,3,5,6-tetrahydro-1H-pyrido[3′,2′:4,5]pyrrolo[2,3-g]indolizin-7(11cH)-yl)ethanone] |  |  | 30% | 8% | 4% |
